Converted amounts (≈) assume the structure as drawn.
Legend:
[1] = Inhibitor activity (IA), depth of chemical embossing and degree of expansion ranked against BTA-P (Table II); design: key to Inhibitor Activity (IA): 1: Excellent; 2: Very Good; 3: Good; 4: Fair; 5: Poor; None; settings: 10% by weight inhibitor in ink; scale 1 to 5, BTA-P benchmark = 1; 7 mil plastisol, 185 °C, 1.9 min
Description: Table II sets forth a number of properties of the examples and comparative examples which were made and tested. Most of these compounds were prepared using the direct milling procedure and then evaluated for inhibitor activity, ghosting and embossing definition.
The inhibited inks (at 10% by weight inhibitor concentration) were printed on 7 mils of an expandable plastisol coated onto a glass mat which was saturated with a non-expandable plastisol. This was done on a flat-bed gravure proof press using a 100 line screen step-wedge gravure plate. The steps ranged from a deep shadow tone to a shallow highlight tone. The inks printed and dried without any tack.
The printed samples were coated with 10 mils of a clear plastisol wearlayer and heated for 1.9±0.1 minutes at an air temperature of 185°±2° C. in a Werner. Mathis oven to fuse and expand the foamable plastisol to about 14 mils (a 2:1 blow ratio). The thickness of the printed coated areas (i.e., restricted area) was measured in mils and compared to the thickness of the expanded unprinted surrounding areas. This difference was recorded as depth of chemical embossing and was used along with the degree of expansion in the inhibited area to access the inhibitor activity (IA).
The inhibitor activity of the BTA-P derivative was established as the benchmark and on a scale of 1 to 5 was given a rating of 1 (five on the scale being less than one mil of overall chemical embossing). This is a subjective ranking where the other compounds were evaluated for inhibitor activity by comparing them to BTA-P, both numerically and visually.

physchem = format: physicochemical; settings: for Solubility in iPrOH: 1440 min
[2] = Stability of dispersions and ink compositions containing the inhibitor; format: physicochemical
Description: A cationic dispersion of TTA-P was prepared using a quaternary ammonium salt, stearyl dimethylbenzylammonium chloride, (Maquat SC-18, Mason Chemical Co.), as the stabilizer. The product was first diminutized by grinding the coarse powder (TTA-P) for approximately 18 hours in a standard ball mill using a combination of 12 mm diameter spherical and 6 mm diameter×6 mm high cylindrical balls. Approximately 1/2 of the 1 L ball mill volume was filled for the grinding operation. […] The dispersion was then prepared by adding 2.35 parts Maquat SC-18 (85% active) to 37.65 parts deionized water and stirring until dissolved. A total of 40 parts of TTA-P was then added to the surfactant solution in 5 part increments with stirring, followed by agitation with a sonic dismembrator, (Fisher Model 3000). The sonic probe was inserted directly into the suspension and run on the highest setting for 1-2 minutes. A creamy dispersion resulted initially, with viscosity increasing with increasing solids content. The final suspension was a uniform paste with a concentration of 50% by weight solids.
A blue aqueous inhibitor ink was prepared by adding 0.20 parts of CIB 103 Blue Pigment (sold by Penn Color, Inc.) to 20 parts of CIE 94 Extender (sold by Penn Color, Inc.) and stirring to uniform coloration. Then 6.06 parts of the 50% suspension of TTA-P (prepared in Example 4) was then added to the ink mixture and stirred to uniform coloration.
An anionic dispersion paste of TTA-P was prepared with a polyoxyethylene branched nonylphenyl ether phosphate surfactant, (Rhodofac PE-50, Rhone Poulenc). Diminutization of the compound was performed by milling as described in Example 4. Dispersion of the compound was accomplished using the sonic dismembrator, also described in Example 4. Materials were combined in the proportion: 40 parts of deionized water, 2.06 parts of the surfactant and 40 parts of TTA-P. Materials were added in the listed sequence.
The anionic dispersion of TTA-P (Example 6) was added to an anionic ink formulation of Sicpa Corp. The resultant mixture consisted of 20 parts Sicpa Extender 694556, 0.20 parts Sicpa black ink 674554 and 6.06 parts of the 48.7% dispersion of the compound (Example 6).
A portion of BTA-P, the benzotriazole-piperazine derivative, was stably dispersed with the cationic surfactant stearyldimethylbenzylammonium chloride, (Maquat SC-18, Mason Chemical Co.). The compound was milled and dispersed as in Example 4. The materials were combined in the proportion: 20 parts deionized water, 1.18 parts Maquat SC-18, (85% active), and 33.16 parts BTA-P. The materials were added in the listed sequence. […] The paste was 61% by weight of BTA-P.
The cationic dispersion of BTA-P (Example 8) was added to a cationic ink formulation of Penn Color. The mixture consisted of 20 parts Penn Color Extender CIE 94, 0.20 parts Penn Color CIB 103 blue ink and 4.96 parts of the 61% dispersion of BTA-P (Example 8).
A portion of HTTA-P, the hydrogenated tolyltriazolepiperazine derivative, was colloidally dispersed with the cationic surfactant stearyldimethylbenzylammonium chloride, (Maquat SC-18, Mason Chemical Co.). The milling and dispersing procedures of Example 4 were followed. The materials were combined in the proportion: 21 parts deionized water, 1 part Maquat SC-18, (85% active), and 37 parts HTTA-P. The materials were added in the listed sequence. […] The paste was 62.7% by weight of HTTA-P.
The cationic dispersion of HTTA-P (Example 10) was added to a cationic ink formulation of Penn Color. The mixture consisted of 20 parts Extender CIE 94, 0.20 parts CIB 103 blue ink and 4.83 parts of the 62.7% dispersion of HTTA-P (Example 10).
Hitherto, dispersion of these new inhibitors directly into the ink formulation was not considered. The instability problems of other triazole inhibitors seemed to indicate that a surfactant in addition to that found in the ink and extender was required. […]

[3] = as above; format: physicochemical; settings: for Stability of ink mixture: sonicated
[4] = cationic aqueous ink with cationic dispersion
[5] = cationic dispersion paste, Maquat SC-18

Molecule | Inhibitor Activity (IA) [1] | Solubility in iPrOH (physchem) [% BY WT] | Solubility in H2O (physchem; water, 24 h) [% BY WT] | Stability of ink mixture ([2]; anionic aqueous ink with anionic dispersion) | Stability of dispersion ([2]; anionic dispersion paste, Rhodofac PE-50) | Stability of ink mixture [2, 4] | Stability of ink mixture ([3]; direct addition to anionic ink) | Stability of ink mixture ([3]; direct addition to cationic ink) | solubility at 24 h (physchem; water) [µg/mL] | Stability of dispersion [2, 5] | Stability of dispersion ([3]; direct milling in cationic ink extender CIE 94, about 18 hours)
N,N'-bis(tolyltriazol-1-yl methyl) piperazine [TTA-P] | 1 | 0.204 | 0.031 | colloidally stable | stable, homogenous paste | colloidally stable and disperse | homogenous and stable mixture | homogenous and stable mixture |  |  | 
c1ccc2c(c1)nnn2CN1CCN(Cn2nnc3ccccc32)CC1 [BTA-P, N,N'-bis(benzotriazol-1-ylmethyl) piperazine] | 1 | 0.007 |  |  |  | colloidally stable |  |  | 10 (≈ 28.7 µM) | stable homogenous paste | homogeneous stable dispersion
N,N'-Bis(Methylcyclohexyltriazol-1-yl Methyl) Piperazine [HTTA-P] | 1 |  |  |  |  | colloidally stable |  |  |  | stable homogenous paste | 

Reference: patent US5441563A, “Highly insoluble azole embossing inhibitor and the use thereof” (Armstrong World Industries, Inc., priority 1994, dated 1995)
